The values that follow come from US9181305B2, “Exendin-4 peptide analogues” (SANOFI, priority 2012, dated 2015).

The test system of series [1] is female NMRI-mice. As to the kind of experiment: Gastric emptying and intestinal passage in mice. The series is classed as in vivo. Particulars: 0.02 mg/kg s.c., 30 min prior to coloured bolus; p<0.0001. As for the experimental part: Female NMRI-mice of a body weight between 20 and 30 g were used. Mice were adapted to housing conditions for at least one week. Mice were overnight fasted, while water remained available all the time. On the study day, mice were weighed, single-caged and allowed access to 500 mg of feed for 30 min, while water was removed. At the end of the 30 min feeding period, remaining feed was removed and weighed. 60 min later, a coloured, non-caloric bolus was instilled via gavage into the stomach. The test product or its vehicle in the control group was administered subcutaneously, to reach Cmax when coloured bolus was administered. After another 30 min, the animals were sacrificed and the stomach and the small intestine prepared. The filled stomach was weighed, emptied, carefully cleaned and dried and reweighed. The calculated stomach content indicated the degree of gastric emptying. The small intestine was straightened without force and measured in length. Then the distance from the gastric beginning of the gut to the tip of the farthest travelled intestinal content bolus was measured. The intestinal passage was given as relation in percent of the latter distance and the total length of the small intestine. Statistical analyses were performed with Everstat 6.0 by Student's T-Test. Differences were considered statistically significant at the p<0.05 level. […]

Series [2] has as its target T1, human GLP-1 receptor (hGLP-1 R) (Homo sapiens, UniProt P43220).
T1 construct: expressed in transfected cells; host or cells: HEK-293
As to the kind of experiment: cAMP response (HTRF) of HEK-293 cells stably expressing human GLP-1 receptor. The series is classed as cell-based. Particulars: HEK-293 cells expressing human GLP-1 receptor, cAMP formation. In outline:
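Detached HEK-293 cells stably expressing the receptor were suspended in HBSS with 20 mM HEPES, 0.1% BSA and 2 mM IBMX. Test compound was added for 30 min at room temperature, and cellular cAMP was quantified by HTRF.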

Series [3] in a line: physchem. The series is classed as physicochemical.
Series [4] has as its system female NMRI-mice. As to the kind of experiment: Automated assessment of feed intake in mice (22 hours). It is filed as in vivo. As for the experimental part: Female NMRI-mice of a body weight between 20 and 30 g were used. Mice were adapted to housing conditions for at least one week and for at least one day single-caged in the assessment equipment, when basal data were recorded simultaneously. On the study day, test product was administered subcutaneously close to the lights-off phase (12 h lights off) and assessment of feed consumption was directly started afterwards. Assessment included continued monitoring (every 30 min) over 22 hours. Repetition of this procedure over several days was possible. Restriction of assessment to 22 hours was for practical reason to allow for reweighing of animals, refilling of feed and water and drug administration between procedures. Results could be assessed as cumulated data over 22 hours or differentiated to 30 min intervals. Statistical analyses were performed with Everstat 6.0 by two-way ANOVA on repeated measures and Dunnetts post-hoc analyses. Differences were considered statistically significant at the p<0.05 level. Fed female NMRI-mice, weighing on average 27 g, were administered 0.01 or 0.1 mg/kg of SEQ ID NO: (7) or phosphate buffered saline (vehicle control) subcutaneously, directly prior to start of feeding monitoring. Lights-off phase (dark phase) started 4 hours later.

The test system of series [5] is female diet-induced obese C57BL/6NCrl mice. As to the kind of experiment: Single subcutaneous treatment, blood glucose in diet-induced obese mice. Particulars: single s.c. 100 μg/kg, fed DIO mice (9 months on high-fat diet). The series is classed as in vivo. The protocol: Female C57BL/6NCrl mice were housed in groups (n=8) and had ad-libitum access to high-fat diet and water. Initial blood samples were taken just before administration (s.c.) of vehicle (phosphate buffer solution) or the exendin-4 analogue (e.g. SEQ ID NO: (7)) (100 μg/kg in phosphate buffer) in fed DIO mice. The volume of administration was 5 mL/kg. The animals had access to high-fat diet and water during the experiment, food consumption was determined at all time points for blood sampling. Blood glucose levels were measured at t=0.5 h, t=1 h, t=2 h, t=4 h, t=6 h, t=8 h, and t=24 h. Blood sampling was performed by tail incision without anaesthesia. Statistical analyses were performed with Everstat 6.0 by repeated measures two-way ANOVA and Dunnetts post-hoc analyses. Differences were considered statistically significant at the p<0.05 level.

T1 sequence (P43220 24-463): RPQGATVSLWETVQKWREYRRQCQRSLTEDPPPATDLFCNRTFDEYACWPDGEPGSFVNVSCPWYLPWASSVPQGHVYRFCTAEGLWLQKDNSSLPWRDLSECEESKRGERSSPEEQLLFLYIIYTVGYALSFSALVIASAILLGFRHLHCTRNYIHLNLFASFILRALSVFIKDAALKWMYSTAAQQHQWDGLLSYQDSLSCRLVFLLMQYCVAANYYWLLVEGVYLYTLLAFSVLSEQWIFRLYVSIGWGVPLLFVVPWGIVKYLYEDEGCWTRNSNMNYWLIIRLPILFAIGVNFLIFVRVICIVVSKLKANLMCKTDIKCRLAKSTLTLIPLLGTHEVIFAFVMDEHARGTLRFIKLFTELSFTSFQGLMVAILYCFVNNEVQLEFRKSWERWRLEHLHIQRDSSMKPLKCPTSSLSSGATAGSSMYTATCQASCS

For orientation: EC50 means the midpoint of the concentration-response curve. Read a low EC50 as greater potency. A word on the solubility: it is the dissolved amount per volume that the medium holds. High values mean much dissolved substance, low ones little dissolved substance. `CCCCCCCCCCCCCCCC(=O)N[C@@H](CCC(=O)NCCCC[C@H](NC(=O)[C@H](CO)NC(=O)[C@@H]1CCCN1C(=O)[C@@H]1CCCN1C(=O)[C@@H]1CCCN1C(=O)[C@H](C)NC(=O)CNC(=O)[C@H](CO)NC(=O)[C@H](CO)NC(=O)[C@@H]1CCCN1C(=O)CNC(=O)CNC(=O)[C@H](CC(N)=O)NC(=O)[C@H](CCCCN)NC(=O)[C@H](CC(C)C)NC(=O)[C@H](Cc1c[nH]c2ccccc12)NC(=O)[C@H](CCC(=O)O)NC(=O)[C@@H](NC(=O)[C@H](Cc1ccccc1)NC(=O)[C@H](CC(=O)O)NC(=O)[C@H](CCC(N)=O)NC(=O)[C@H](C)NC(=O)[C@H](CCCNC(=N)N)NC(=O)[C@H](CCCNC(=N)N)NC(=O)[C@H](CO)NC(=O)[C@H](CC(=O)O)NC(=O)[C@H](CCSC)NC(=O)[C@H](CCC(N)=O)NC(=O)[C@H](CCCCN)NC(=O)[C@H](CO)NC(=O)[C@H](CC(C)C)NC(=O)[C@H](CC(=O)O)NC(=O)[C@H](CO)NC(=O)[C@@H](NC(=O)[C@H](Cc1ccccc1)NC(=O)[C@@H](NC(=O)CNC(=O)[C@H](CCC(N)=O)NC(=O)[C@@H](CO)NC(=O)[C@@H](N)Cc1c[nH]cn1)[C@@H](C)O)[C@@H](C)O)[C@@H](C)CC)C(N)=O)C(=O)O` [(7)]: the “reduction of intestinal passage” value in series [1] is 54%. Moreover, in series [2], the EC50 came out at 5.2 pM. Also, the solubility at 2 h in series [3] (pH 4.5) and in series [3] (pH 7.4) was more than 1000 µg/mL throughout. Further, the “reduction of feed intake at the end of the study (22 hours)” value in series [4] (0.01 mg/kg s.c., p=0.0027) is listed as 17%; in series [4] (0.1 mg/kg s.c., p<0.0001), 37%. Also, in series [5], the “blood glucose over 24 h compared to vehicle-treated control animals” value was “significantly decreased”.
